{"source": "patent US7608750B2", "about": "“Nonhuman model animal unresponsive to immunopotentiating synthetic compound” (Japan Science and Technology Agency, priority 2001, dated 2009)", "tested_on": "splenic cells derived from TLR7 knockout mice (TLR7KO)", "experiment": "Splenic cell proliferation ([3H] thymidine incorporation), TLR7 knockout", "format": "cell-based, mouse", "conditions": "5×10^4 cells, cultured 48 h", "method": "As activated phenotypes were proliferated and expressed by stimulating B-lymphocytes with imidazoquinoline group compounds, the proliferation of splenic cells was examined (Cell. Immunol. 203, 55-62, 2000; J. Immunol. 165, 5552-5557, 2000). Splenic cells (5×10^4 cells) derived from TLR7 knockout mice (TLR7KO) and wild-type mice were stimulated with R-848 and CpGDNA at a predetermined concentration, cultured for 48 h (cultured by adding [^3H] thymidine for last eight hours), and measured the level of thymidine incorporation using a β scintillation counter. A mean value+/−S.D., obtained from representative experiment among triplicate experiments is shown."}
{"compound": "CCOCc1nc2c(N)nc3ccccc3c2n1CC(C)(C)O", "note": "[R-848, resiquimod]", "values": [{"measurement": "proliferation of splenic cells ([3H] thymidine incorporation)", "result": "did not show proliferation"}]}
